Test results: patent US10131652B2, “Pyrimidinyloxy benzene derivatives as herbicides” (E. I. DU PONT DE NEMOURS AND COMPANY, priority 2014, dated 2018)

What was measured:
Type in all cases: in vivo
[1] = system: barnyardgrass (Echinochloa crus-galli); assay: Test B pre-/postemergence plant response
How it was run: (§1)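 Steps: plant seeds in loam soil–sand mix; spray soil preemergence, and in parallel spray 2–10 cm one- to two-leaf plants postemergence; hold ~10 days in greenhouse; visually rate injury against untreated controls (0 = no effect, 100 = complete control).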

[2] = system: corn (Zea mays); assay: Test B pre-/postemergence plant response
How it was run: as §1

[3] = system: giant foxtail (Setaria faberii); assay: Test B pre-/postemergence plant response
How it was run: as §1

[4] = system: large (Lg) crabgrass (Digitaria sanguinalis); assay: Test B pre-/postemergence plant response
How it was run: as §1

[5] = system: morningglory (Ipomoea spp.); assay: Test B pre-/postemergence plant response
How it was run: as §1

[6] = system: pigweed (Amaranthus retroflexus); assay: Test B pre-/postemergence plant response
How it was run: as §1

[7] = system: velvetleaf (Abutilon theophrasti); assay: Test B pre-/postemergence plant response
How it was run: as §1

[8] = system: wheat (Triticum aestivum); assay: Test B pre-/postemergence plant response
How it was run: as §1

[9] = system: barnyardgrass (Echinochloa crus-galli); assay: Test C flooded paddy test plant response; details: Flood, 250 g ai/ha; scale of 0 to 100 where 0 is no effect and 100 is complete control; 13 to 15 days
How it was run: (§2)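 Visual injury ratings (0, no effect; 100, complete control) were assigned after 13 to 15 days in a greenhouse, comparing treated plants with controls. Compounds had been added straight into paddy water over 2-leaf-stage plants flooded to 3 cm.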

[10] = system: ducksalad (Heteranthera limosa); assay: Test C flooded paddy test plant response; details: Flood, 250 g ai/ha; scale of 0 to 100 where 0 is no effect and 100 is complete control; 13 to 15 days
How it was run: as §2

[11] = system: rice (Oryza sativa); assay: Test C flooded paddy test plant response; details: Flood, 250 g ai/ha; scale of 0 to 100 where 0 is no effect and 100 is complete control; 13 to 15 days
How it was run: as §2

[12] = system: small-flower umbrella sedge (Cyperus difformis); assay: Test C flooded paddy test plant response; details: Flood, 250 g ai/ha; scale of 0 to 100 where 0 is no effect and 100 is complete control; 13 to 15 days
How it was run: as §2

[13] = 125 g ai/ha, postemergence, 0 to 100 scale, 0 no effect, 100 complete control
[14] = Postemergence, 500 g ai/ha, 0 to 100 scale (0 no effect, 100 complete control)
[15] = Preemergence, 125 g ai/ha, 0 to 100 scale where 0 is no effect and 100 is complete control
[16] = Preemergence, 500 g ai/ha, 0 to 100 scale (0 no effect, 100 complete control)
[17] = Postemergence, 1000 g ai/ha, 0 to 100 scale (0 no effect, 100 complete control)
[18] = Preemergence, 1000 g ai/ha, 0 to 100 scale (0 no effect, 100 complete control)

Clc1cnc(Oc2ccccc2-c2cccnc2)nc1 [Compound 4]
Plant response rating, Barnyardgrass [1, 13]: 0
Plant response rating, Barnyardgrass [1, 14]: 10
Plant response rating, Barnyardgrass [1, 15]: 0
Plant response rating, Barnyardgrass [1, 16]: 0
Plant response rating, Corn [2, 15]: 0
Plant response rating, Corn [2, 16]: 0
Plant response rating, Foxtail, Giant [3, 13]: 0
Plant response rating, Foxtail, Giant [3, 14]: 30
Plant response rating, Foxtail, Giant [3, 15]: 10
Plant response rating, Foxtail, Giant [3, 16]: 50
Plant response rating, Crabgrass, Large [4, 13]: 20
Plant response rating, Crabgrass, Large [4, 14]: 50
Plant response rating, Crabgrass, Large [4, 15]: 10
Plant response rating, Crabgrass, Large [4, 16]: 80
Plant response rating, Morningglory [5, 13]: 0
Plant response rating, Morningglory [5, 14]: 30
Plant response rating, Morningglory [5, 15]: 0
Plant response rating, Morningglory [5, 16]: 0
Plant response rating, Pigweed [6, 13]: 30
Plant response rating, Pigweed [6, 14]: 100
Plant response rating, Pigweed [6, 15]: 30
Plant response rating, Pigweed [6, 16]: 70
Plant response rating, Velvetleaf [7, 13]: 30
Plant response rating, Velvetleaf [7, 14]: 60
Plant response rating, Velvetleaf [7, 15]: 0
Plant response rating, Velvetleaf [7, 16]: 30
Plant response rating, Wheat [8, 13]: 0
Plant response rating, Wheat [8, 14]: 0
Plant response rating, Wheat [8, 15]: 0
Plant response rating, Wheat [8, 16]: 0
Barnyardgrass plant response rating [9]: 0
Ducksalad plant response rating [10]: 0
Rice plant response rating [11]: 0
Sedge, Umbrella plant response rating [12]: 0

Cn1ccc(-c2ccccc2Oc2ncc(Cl)cn2)n1 [Compound 10]
Plant response rating, Barnyardgrass [1, 13]: 0
Plant response rating, Barnyardgrass [1, 14]: 0
Plant response rating, Barnyardgrass [1, 17]: 10
Plant response rating, Barnyardgrass [1, 15]: 0
Plant response rating, Barnyardgrass [1, 16]: 0
Plant response rating, Barnyardgrass [1, 18]: 0
Plant response rating, Corn [2, 13]: 0
Plant response rating, Corn [2, 14]: 0
Plant response rating, Corn [2, 17]: 0
Plant response rating, Corn [2, 15]: 0
Plant response rating, Corn [2, 16]: 0
Plant response rating, Corn [2, 18]: 0
Plant response rating, Foxtail, Giant [3, 13]: 0
Plant response rating, Foxtail, Giant [3, 14]: 0
Plant response rating, Foxtail, Giant [3, 17]: 10
Plant response rating, Foxtail, Giant [3, 15]: 0
Plant response rating, Foxtail, Giant [3, 16]: 0
Plant response rating, Foxtail, Giant [3, 18]: 0
Plant response rating, Crabgrass, Large [4, 13]: 0
Plant response rating, Crabgrass, Large [4, 14]: 0
Plant response rating, Crabgrass, Large [4, 17]: 10
Plant response rating, Crabgrass, Large [4, 15]: 0
Plant response rating, Crabgrass, Large [4, 16]: 0
Plant response rating, Crabgrass, Large [4, 18]: 10
Plant response rating, Morningglory [5, 13]: 20
Plant response rating, Morningglory [5, 14]: 30
Plant response rating, Morningglory [5, 17]: 10
Plant response rating, Morningglory [5, 15]: 0
Plant response rating, Morningglory [5, 16]: 0
Plant response rating, Morningglory [5, 18]: 0
Plant response rating, Pigweed [6, 13]: 0
Plant response rating, Pigweed [6, 14]: 20
Plant response rating, Pigweed [6, 17]: 50
Plant response rating, Pigweed [6, 15]: 0
Plant response rating, Pigweed [6, 16]: 30
Plant response rating, Pigweed [6, 18]: 10
Plant response rating, Velvetleaf [7, 13]: 0
Plant response rating, Velvetleaf [7, 14]: 20
Plant response rating, Velvetleaf [7, 17]: 20
Plant response rating, Velvetleaf [7, 15]: 0
Plant response rating, Velvetleaf [7, 16]: 0
Plant response rating, Velvetleaf [7, 18]: 0
Plant response rating, Wheat [8, 13]: 0
Plant response rating, Wheat [8, 14]: 0
Plant response rating, Wheat [8, 17]: 0
Plant response rating, Wheat [8, 15]: 0
Plant response rating, Wheat [8, 16]: 0
Plant response rating, Wheat [8, 18]: 0
Barnyardgrass plant response rating [9]: 0
Ducksalad plant response rating [10]: 0
Rice plant response rating [11]: 0
Sedge, Umbrella plant response rating [12]: 0

Cn1cc(-c2ccccc2Oc2ncc(Cl)cn2)cn1 [Compound 11]
Plant response rating, Barnyardgrass [1, 13]: 0
Plant response rating, Barnyardgrass [1, 14]: 10
Plant response rating, Barnyardgrass [1, 15]: 0
Plant response rating, Barnyardgrass [1, 16]: 0
Plant response rating, Corn [2, 13]: 0
Plant response rating, Corn [2, 14]: 0
Plant response rating, Corn [2, 15]: 0
Plant response rating, Corn [2, 16]: 0
Plant response rating, Foxtail, Giant [3, 13]: 0
Plant response rating, Foxtail, Giant [3, 14]: 0
Plant response rating, Foxtail, Giant [3, 15]: 0
Plant response rating, Foxtail, Giant [3, 16]: 0
Plant response rating, Crabgrass, Large [4, 13]: 10
Plant response rating, Crabgrass, Large [4, 14]: 10
Plant response rating, Crabgrass, Large [4, 15]: 0
Plant response rating, Crabgrass, Large [4, 16]: 0
Plant response rating, Morningglory [5, 13]: 10
Plant response rating, Morningglory [5, 14]: 20
Plant response rating, Morningglory [5, 15]: 0
Plant response rating, Pigweed [6, 13]: 10
Plant response rating, Pigweed [6, 14]: 20
Plant response rating, Pigweed [6, 15]: 0
Plant response rating, Pigweed [6, 16]: 30
Plant response rating, Velvetleaf [7, 13]: 10
Plant response rating, Velvetleaf [7, 14]: 20
Plant response rating, Velvetleaf [7, 15]: 10
Plant response rating, Velvetleaf [7, 16]: 10
Plant response rating, Wheat [8, 13]: 0
Plant response rating, Wheat [8, 14]: 0
Plant response rating, Wheat [8, 15]: 0
Plant response rating, Wheat [8, 16]: 0
Barnyardgrass plant response rating [9]: 0
Ducksalad plant response rating [10]: 0
Rice plant response rating [11]: 0
Sedge, Umbrella plant response rating [12]: 0
